Measurements as given in patent US6881752B2 (University of Alabama, priority 1998, dated 2005).

Key:
[1] = tested on: membrane phosphotyrosine protein phosphatase (rat adipocytic membranes); test: Rat adipocytic membrane phosphotyrosine phosphatase activity, p-NPP substrate; type: biochemical; conditions: 5 mM p-NPP
Description: 125 μL of a rat membrane suspension corresponding to 0.0856 mg of protein/mL was utilized.
(§1) 100% activity represents the activity in the absence of added chromium complexes or their components. 25 μL of a rat membrane suspension corresponding to 0.0895 mg protein/mL was utilized.
(§2) Fat cells from male Sprague Dawley rats were isolated using the procedures of Rodbell^19 and Anderson et al.^20 with modifications.^2 Three rats (not kept on a Cr-deficient diet) were sacrificed by decapitation, and their epididymal fat pads removed. Rat adipocytes were washed with 1% bovine serum albumin (BSA). 50 mM Hepes, pH 7.4 buffer containing 10 μg/mL leupeptin and 5 μg/mL aprotinin. Cells were homogenized with a manual teflon homogenizer and frozen and thawed five times. The lipid layer was removed, and the cell homogenate was centrifuged for one hour at 40,000 g. The supernatant was removed, and the pellet was suspended in Hepes buffer and used as the source of membrane phosphatase and kinase activity. Protein concentrations were analyzed using the BCA method (Pierce Chemical Co.) with BSA as standard.
p-nitrophenyl phosphate (p-NPP) was used to determine the amount of PTP activity using the method of Li et al.^21 The assay used 5 mM substrate in 0.05 M Tris, pH 7.5, unless noted. Activation of PTP activity by LMWCr and other Cr-containing species was examined as described by Davis et al.^2 Solutions of LMWCr, 1,2, and the Cr-amino acid mixture were incubated with the enzyme for fifteen minutes at 37° C. before initiation of the reaction. Hydrolyses proceeded for one hour at 37° C. The extent of hydrolysis was determined at 404 nm (ε=1.78×10^4M^−1cm^−1).

[2] = target: T1, insulin-dependent membrane tyrosine protein kinase activity (rat adipocytic membranes) (Rattus norvegicus, UniProt P15127); test: Rat adipocytic membrane protein tyrosine kinase activity in the presence of 100 nM insulin; type: biochemical
T1 construct: from tissue; host or cells: epididymal fat pad adipocyte membranes, male Sprague Dawley rats
T1 sequence (P15127 764-1383 limits assumed): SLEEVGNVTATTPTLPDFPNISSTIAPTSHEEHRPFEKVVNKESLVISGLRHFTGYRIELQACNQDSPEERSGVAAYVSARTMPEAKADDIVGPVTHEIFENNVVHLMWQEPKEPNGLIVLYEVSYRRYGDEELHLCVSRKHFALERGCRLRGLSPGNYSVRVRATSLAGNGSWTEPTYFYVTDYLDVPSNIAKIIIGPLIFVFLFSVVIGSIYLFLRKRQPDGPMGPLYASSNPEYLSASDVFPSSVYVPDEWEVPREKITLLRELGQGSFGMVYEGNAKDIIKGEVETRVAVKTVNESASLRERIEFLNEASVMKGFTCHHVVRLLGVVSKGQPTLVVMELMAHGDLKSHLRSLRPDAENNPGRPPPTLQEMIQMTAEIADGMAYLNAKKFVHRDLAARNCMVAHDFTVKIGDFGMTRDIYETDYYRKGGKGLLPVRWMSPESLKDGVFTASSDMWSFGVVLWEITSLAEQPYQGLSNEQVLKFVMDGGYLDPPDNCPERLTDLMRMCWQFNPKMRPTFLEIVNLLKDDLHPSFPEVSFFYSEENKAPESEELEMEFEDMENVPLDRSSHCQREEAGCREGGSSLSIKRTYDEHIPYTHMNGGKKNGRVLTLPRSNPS
T1 sequence (P15127 27-759 partner limits assumed): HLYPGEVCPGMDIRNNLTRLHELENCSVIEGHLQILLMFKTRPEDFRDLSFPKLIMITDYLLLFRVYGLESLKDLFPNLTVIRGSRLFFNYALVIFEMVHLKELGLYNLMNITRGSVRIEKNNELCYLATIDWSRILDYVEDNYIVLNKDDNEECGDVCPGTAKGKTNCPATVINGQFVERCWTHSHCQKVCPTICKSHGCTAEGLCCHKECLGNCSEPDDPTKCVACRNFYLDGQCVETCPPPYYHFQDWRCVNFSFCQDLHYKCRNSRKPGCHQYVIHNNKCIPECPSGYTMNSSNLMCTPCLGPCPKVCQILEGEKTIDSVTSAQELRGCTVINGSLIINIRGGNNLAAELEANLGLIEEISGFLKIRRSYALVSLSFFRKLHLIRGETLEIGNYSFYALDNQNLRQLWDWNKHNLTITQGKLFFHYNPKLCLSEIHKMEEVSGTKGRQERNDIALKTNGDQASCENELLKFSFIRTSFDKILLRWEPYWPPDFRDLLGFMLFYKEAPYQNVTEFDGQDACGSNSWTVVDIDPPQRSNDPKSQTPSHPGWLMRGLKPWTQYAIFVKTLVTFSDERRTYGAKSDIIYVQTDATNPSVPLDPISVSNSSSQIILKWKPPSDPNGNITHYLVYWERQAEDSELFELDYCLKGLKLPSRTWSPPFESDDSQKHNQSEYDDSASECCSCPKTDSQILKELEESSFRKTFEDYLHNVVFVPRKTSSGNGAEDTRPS
T1 sequence (P01317 25-54 partner limits assumed): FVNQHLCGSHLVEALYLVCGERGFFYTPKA
T1 sequence (P01317 85-105 partner limits assumed): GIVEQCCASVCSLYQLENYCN
Description: as §1, §2

[3] = tested on: adult-onset diabetic patients; conditions: cited from earlier work

CCC(=O)O [Propionic acid]
effect on membrane phosphatase activity [1]: do not potentiate
effect on insulin-dependent membrane kinase activity [2]: do not potentiate

O=[N+]([O-])O [nitrate]
effect on membrane phosphatase activity [1]: do not potentiate
effect on insulin-dependent membrane kinase activity [2]: do not potentiate

[Cr3O(O2CCH3)6 (H2O)3]Cl [compound 2]
effect on membrane phosphatase activity [1]: inhibits
effect on insulin-dependent membrane kinase activity [2]: inhibits

chromium(III) picolinate
insulin requirements ([3]; 138 adult-onset diabetic patients): reduced insulin requirements
glycemic control ([3]; 180 adult-onset diabetic patients): improved glycemic control
